One assay deals with LXRβ (Homo sapiens (Human), UniProt P55055). In words: In vitro assay LXRβ: PathHunter NHR CHO cells, LXRβ / Steroid Receptor Co-activator Peptide enzyme fragment complementation. The settings on record: PathHunter NHR CHO cells, full-length human LXRβ and SRCP, chemiluminescent signal; read-out: LXRβ PPI. It counts as cell-based. An outline of the steps: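 Enzyme fragment complementation read-out: CHO cells stably expressing ProLink-tagged full-length human LXRβ plus nuclear enzyme acceptor–SRCP fusion, seeded and held overnight at 37° C. Medium with charcoal-dextran filtered serum; final vehicle 1%. Chemiluminescence measured after signal generation.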
Sequence of LXRβ (P55055 whole entry, the tested form may be a part): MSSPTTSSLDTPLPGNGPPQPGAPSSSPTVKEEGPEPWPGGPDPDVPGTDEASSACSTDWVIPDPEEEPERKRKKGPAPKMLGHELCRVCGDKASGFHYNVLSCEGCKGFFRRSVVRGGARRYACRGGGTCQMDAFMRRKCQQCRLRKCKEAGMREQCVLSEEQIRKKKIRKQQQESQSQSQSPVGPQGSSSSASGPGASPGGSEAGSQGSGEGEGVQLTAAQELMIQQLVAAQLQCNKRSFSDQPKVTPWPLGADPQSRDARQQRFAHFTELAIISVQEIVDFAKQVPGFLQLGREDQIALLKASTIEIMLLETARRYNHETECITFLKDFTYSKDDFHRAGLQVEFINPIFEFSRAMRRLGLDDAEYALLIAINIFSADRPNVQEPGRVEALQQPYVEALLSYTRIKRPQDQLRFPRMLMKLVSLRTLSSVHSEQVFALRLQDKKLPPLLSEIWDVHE

The target in a further assay is SREBP-2 (Homo sapiens (Human), UniProt Q12772). As to the kind of experiment: In vitro assay SREBP-2: PathHunter U2OS SREBP-2 Nuclear Translocation Cell Line, U18666A-stimulated. Format: cell-based.
Where [1] appears, read: PathHunter U2OS SREBP-2 nuclear translocation cells, U18666A 10 μM, overnight (16 hours).

This passage reports EC50 and IC50 results from patent publication US20230340011A1 (Asteroid Therapeutics, priority 2022, published 2023).

pEC50, pIC50: −log10 of the molar value. Like-named read-outs stand apart in the source and are kept apart here.

As a reminder, the pIC50 is the negative decadic logarithm of the IC50, by convention in mol/L. Low readings indicate a large IC50, high ones a small IC50.

`Cc1cc(CC[C@@H](C)[C@H]2CC[C@H]3[C@@H]4CC=C5C[C@@H](O)CC[C@]5(C)[C@H]4CC[C@]23C)ncn1` [Example 189, (1R,3aS,3bS,7S,9aR,9bS,11aR)-9a,11a-dimethyl-1-[(2R)-4-(6-methylpyrimidin-4-yl)butan-2-yl]-1H,2H,3H,3aH,3bH,4H,6H,7H,8H,9H,9aH,9bH,10H,11H,11aH-cyclopenta[a]phenanthren-7-ol]: the pEC50 on LXRβ is 5.00 to 6.00. The compound also gave a pIC50 on SREBP-2 (setting [1]) of more than 6.60.

On to `C[C@H](CCC(=O)N(C)CCc1cccnc1)[C@H]1CC[C@H]2[C@@H]3CC=C4C[C@@H](O)CC[C@]4(C)[C@H]3CC[C@]12C` [Example 543, (R)-4-((3S,8S,9S,10R,13R,14S,17R)-3-hydroxy-10,13-dimethyl-2,3,4,7,8,9,10,11,12,13,14,15,16,17-tetradecahydro-1H-cyclopenta[a]phenanthren-17-yl)-N-methyl-N-(2-(pyridin-3-yl)ethyl)pentanamide], for which the pEC50 at LXRβ is 6.00 to 6.60. Moreover, the pIC50 against SREBP-2 (setting [1]) is more than 6.60.

On to `C[C@H](CCC(=O)N1CCN(C(=O)N2CCCC2)C[C@@H]1C)[C@H]1CC[C@H]2[C@@H]3CC=C4C[C@@H](O)CC[C@]4(C)[C@H]3CC[C@]12C` [Example 655, (R)-4-((3S,8S,9S,10R,13R,14S,17R)-3-hydroxy-10,13-dimethyl-2,3,4,7,8,9,10,11,12,13,14,15,16,17-tetradecahydro-1H-cyclopenta[a]phenanthren-17-yl)-1-((S)-2-methyl-4-(pyrrolidine-1-carbonyl)piperazin-1-yl)pentan-1-one], for which the pEC50 on LXRβ is less than 5.00. This compound had a pIC50 against SREBP-2 (setting [1]) of more than 6.60.

As for `C[C@H](CCC(=O)N1CCCC(C)(CO)CC1)[C@H]1CC[C@H]2[C@@H]3CC=C4C[C@@H](O)CC[C@]4(C)[C@H]3CC[C@]12C` (stereo partly drawn) [Example 375, (4R)-4-((3S,8S,9S,10R,13R,14S,17R)-3-hydroxy-10,13-dimethyl-2,3,4,7,8,9,10,11,12,13,14,15,16,17-tetradecahydro-1H-cyclopenta[a]phenanthren-17-yl)-1-(4-(hydroxymethyl)-4-methylazepan-1-yl)pentan-1-one], at LXRβ, the pEC50 is less than 5.00. For the same compound, the negative-log IC50 (pIC50) on SREBP-2 (setting [1]) is more than 6.60.

As for `COc1cncnc1N1CCN(C(=O)CC[C@@H](C)[C@H]2CC[C@H]3[C@@H]4CC=C5C[C@@H](O)CC[C@]5(C)[C@H]4CC[C@]23C)[C@@H](C)C1` [Example 616, (R)-4-((3S,8S,9S,10R,13R,14S,17R)-3-hydroxy-10,13-dimethyl-2,3,4,7,8,9,10,11,12,13,14,15,16,17-tetradecahydro-1H-cyclopenta[a]phenanthren-17-yl)-1-((S)-4-(5-methoxypyrimidin-4-yl)-2-methylpiperazin-1-yl)pentan-1-one], the pEC50 on LXRβ was less than 5.00. Further, the pIC50 against SREBP-2 (setting [1]) was more than 6.60.

Turning to `COCCN(C)C(=O)N1CCN(C(=O)CC[C@@H](C)[C@H]2CC[C@H]3[C@@H]4CC=C5C[C@@H](O)CC[C@]5(C)[C@H]4CC[C@]23C)CC1` [Example 209, 4-((R)-4-((3S,8S,9S,10R,13R,14S,17R)-3-hydroxy-10,13-dimethyl-2,3,4,7,8,9,10,11,12,13,14,15,16,17-tetradecahydro-1H-cyclopenta[a]phenanthren-17-yl)pentanoyl)-N-(2-methoxyethyl)-N-methylpiperazine-1-carboxamide], the pEC50 at LXRβ is less than 5.00. Besides, the negative logarithm of the IC50 (pIC50) against SREBP-2 is more than 6.60.

Take `C[C@H](CCC(=O)N1CC[C@@H](Oc2ccncc2)[C@@H](C)C1)[C@H]1CC[C@H]2[C@@H]3CC=C4C[C@@H](O)CC[C@]4(C)[C@H]3CC[C@]12C` [Example 572, (R)-4-((3S,8S,9S,10R,13R,14S,17R)-3-hydroxy-10,13-dimethyl-2,3,4,7,8,9,10,11,12,13,14,15,16,17-tetradecahydro-1H-cyclopenta[a]phenanthren-17-yl)-1-((3S,4R)-3-methyl-4-(pyridin-4-yloxy)piperidin-1-yl)pentan-1-one]: at LXRβ, the pEC50 was less than 5.00. This compound also showed a pIC50 against SREBP-2 (setting [1]) of more than 6.60.
